Measurements: patent US20100152301A1, “Treatment of Viral Infections” (GOVERNMENT OF THE US, AS REPRESENTED BY THE SECRETARY, …, priority 2005, published 2010)

Tests used:
HIV-1 integrase [1] = molecular target: T1, HIV-1 integrase (Human immunodeficiency virus type 1 group M subtype B, UniProt P04585); assay: Strand transfer assay with preprocessed (19/21) DNA substrate; type: biochemical; conditions: for IC50: In vitro IC50 Preprocessed substrate; for inhibition at 333 µM: drug concentration of 333 μM
T1 construct: Expression and purification of the recombinant HIV-1 integrase in Escherichia coli; made in house; host or cells: Escherichia coli
Protocol: (§1) Recombinant HIV integrase and oligonucleotide substrates. Expression and purification of the recombinant HIV-1 integrase in Escherichia coli were performed according to (Leh et al., 2000; Marchand et al., 2001) with addition of 10% glycerol to all buffers. The preparation of the Q148C/SSS-mutant integrase will be described elsewhere (Johnson et al., 2005). The oligonucleotide substrates, except those used for the disulfide crosslinking (FIG. 5A), were purchased from Integrated DNA Technologies, Inc. (Coraville, Iowa) and purified by polyacrylamide gel. The single-stranded oligonucleotides were 5′-end labeled with [γ^32P]-ATP (Perkin Elmer, Wellesley, M A) and T4 polynucleotide kinase (New England BioLabs, Ipswich, M A). Unincorporated nucleotide was removed using mini Quick Spin Oligo columns (Roche Diagnostics, Indianapolis, Ind.). Substrates were obtained after annealing with complementary non-labeled oligonucleotides. The thiol-modified substrate (FIG. 5A) for disulfide crosslinking assay was synthesized as essentially described by W. Santos and G. Verdine (Department of Chemistry and Chemical Biology, Harvard University, Cambridge, Mass.) (They and Verdine, 2002).
(§2) Integrase catalytic assays. Reactions were performed in 10 μl with 300 nM of recombinant IN, 20 nM of the 5′-end [^32P]-labeled oligonucleotide substrates and inhibitors at the indicated concentrations. 10% DMSO was included in controls. Reactions were incubated for 40 min at 37° C. in a buffer containing a final concentration of 25 mM MOPS, pH 7.2, 25 mM NaCl, 14.3 mM β-mercaptoethanol and 7.5 mM of divalent cations (MgCl2 or MnCl2 as indicated). Reactions were stopped by addition of 20 μl loading dye (10 mM EDTA, 98% deionized formamide, 0.025% xylene cyanol and 0.025% bromophenol blue). Reactions were heated at 95° C. for 1 min before electrophoresis in 20% polyacrylamide-7 M urea gels. Gels were dried and reaction products were visualized and quantitated with a Molecular Dynamics PhosphorImager (Sunnyvale, Calif.). Densitometric analyses were performed using ImageQuant from the Molecular Dynamics software. The concentrations at which enzyme activity was reduced by 50% (IC50), was determined using “Prism” software (GraphPad Software, San Diego, Calif.) for nonlinear regression to fit dose-response data to logistic curve models.

HIV-1 integrase [2] = molecular target: T1, HIV-1 integrase; assay: Integrase catalytic assay, strand transfer (ST), 21 bp duplex substrate; type: biochemical; conditions: for inhibition activity, ST, 21 bp substrate: drug concentration of 333 μM; for inhibition at 333 µM: read-out: inhibition activity, ST, 21 bp substrate
Protocol: as §1, §2

HIV-1 integrase [3] = molecular target: T1, HIV-1 integrase; assay: Integrase catalytic assay, 3′-processing (3′-P), 21 bp duplex substrate; type: biochemical; conditions: for IC50: In vitro IC50 21 bp substrate 3′-P; for inhibition at 333 µM: drug concentration of 333 μM
Protocol: as §1, §2

HIV-1 integrase [4] = molecular target: T1, HIV-1 integrase; assay: Disintegration assay with Y-oligomer substrate; type: biochemical; conditions: for IC50: In vitro IC50 Disintegration; for inhibition activity, disintegration: drug concentration of 333 μM; for inhibition at 333 µM: read-out: inhibition activity, disintegration
Protocol: as §1, §2

[5] = molecular target: T2, Q148C/SSS-mutant integrase (Human immunodeficiency virus type 1 group M subtype B, UniProt P04585, C1203S/C1212S/C1427S/Q1295C); assay: biochemical; type: binding, HIV-1; conditions: drug 1 mM; Mg2+ or Mn2+ (FIG. 5B)
T2 construct: 10 μM recombinant Q148C/SSS-mutant integrase was incubated with 10 μM DNA substrate; made in house
Protocol: Briefly, 10 μM recombinant Q148C/SSS-mutant integrase was incubated with 10 μM DNA substrate (FIG. 5A) containing tethered thiols in the presence of 20 mM Tris, pH 7.4, 10% glycerol and 7.5 mM of divalent cations (MgCl2 or MnCl2 as indicated) for 20 min at 37° C. Reactions were stopped by the addition of 20 mM methylmethanethiosulfonate (capping reagent). Non-reducing gel loading buffer (100 mM Tris-HCl, pH 6.8, 4% SDS, 0.2% bromophenol blue, 20% glycerol) was added and samples were heated at 95° C. before loading onto 16% tricine gels (Invitrogen, Carlsbad, Calif.). Gels were stained with Microwave Blue according to manufacturer's recommendations (Protiga, Frederick, Md.).
DNA (20 nM) containing a [5′-^32P]-label on one strand and a thiol-modified cytosine on the other strand was added and reactions were capped with methylmethanethiosulfonate at 1 minute. Following capping, non-reducing gel loading buffer (100 mM Tris-HCl, pH 6.8, 4% SDS, 0.2% bromophenol blue, 20% glycerol) was added and samples were directly loaded on 16% tricine gels (Invitrogen, Carlsbad, Calif.). Gels were dried and reaction products were quantitated using the same way as described above.

[6] = read-out: inhibition activity, preprocessed substrate, Mg2+
[7] = read-out: inhibition activity, preprocessed substrate, Mn2+
[8] = In vitro IC50 21 bp substrate ST, Mg2+
[9] = In vitro IC50 21 bp substrate ST, Mn2+
[10] = Mn2+ as cofactor, U5 LTR DNA substrate
[11] = read-out: inhibition activity, 3′-P, 21 bp substrate, Mg2+
[12] = read-out: inhibition activity, 3′-P, 21 bp substrate, Mn2+

Compound	IC50 (HIV-1 integrase [1]; Mg2+) [µM]	IC50 (HIV-1 integrase [1]; Mn2+) [µM]	inhibition at 333 µM (HIV-1 integrase [1]; [6]) [%]	inhibition at 333 µM (HIV-1 integrase [1]; [7]) [%]	IC50 (HIV-1 integrase [2]; [8]) [µM]	IC50 (HIV-1 integrase [2]; [9]) [µM]	potency against HIV-1 integrase relative to the minimal tropolone core (HIV-1 integrase [2]; [10])	inhibition activity, ST, 21 bp substrate (HIV-1 integrase [2]; Mn2+)	inhibition at 333 µM (HIV-1 integrase [2]) [%]	IC50 (HIV-1 integrase [3]; Mg2+) [µM]	IC50 (HIV-1 integrase [3]; Mn2+) [µM]	inhibition at 333 µM (HIV-1 integrase [3]; [11]) [%]	inhibition at 333 µM (HIV-1 integrase [3]; [12]) [%]	IC50 (HIV-1 integrase [4]; Mg2+) [µM]	IC50 (HIV-1 integrase [4]; Mn2+) [µM]	inhibition activity, disintegration (HIV-1 integrase [4]; Mn2+)	inhibition at 333 µM (HIV-1 integrase [4]) [%]	inhibition of integrase-DNA disulfide-crosslinking (in words) [5]	IC50 (HIV-1 integrase [2]; IC50, inhibition of HIV-1 integrase (first screen), Mn2+ as cofactor, U5 LTR DNA substrate, 3′-P or ST not specified) [µM]
CC(C)c1ccc(O)c(=O)cc1 [NSC 43338, γ-thujaplicin]	> 333	> 333	< 5	< 5	> 333	> 333	failed to increase potency	1 (inhibition activity ≦ 5%)	< 5	> 333	> 333	< 5	< 5	> 333	> 333	1 (inhibition activity ≦ 5%)	< 5		
CC(C)=CCc1ccc(=O)c(O)cc1C(C)C [NSC 43339, nootkatin]	> 333	> 333	5 to 20	20 to 40	> 333	> 333	failed to increase potency	3 (20% < inhibition activity < 40% at drug concentration of 333 μM)	20 to 40	> 333	> 333	5 to 20	5 to 20	> 333	> 333	1 (inhibition activity ≦ 5%)	< 5		
CC(C)c1cccc(=O)c(O)c1 [NSC 18804, β-thujaplicin]	> 333	> 333	5 to 20	5 to 20	> 333	> 333	failed to increase potency	2 (5% < inhibition activity < 20%)	5 to 20	> 333	> 333	20 to 40	20 to 40	> 333	> 333	1 (inhibition activity ≦ 5%)	< 5	lack of inhibition	
CC(C)c1ccccc(=O)c1O [NSC 18805, α-thujaplicin]	> 333	> 333	< 5	< 5	> 333	> 333	failed to increase potency	1 (inhibition activity ≦ 5%)	< 5	> 333	> 333	5 to 20	5 to 20	> 333	> 333	1 (inhibition activity ≦ 5%)	< 5		
O=c1cccccc1O [NSC 89303, tropolone]	> 333	> 333	5 to 20	5 to 20	> 333	> 333		3 (20% < inhibition activity < 40% at drug concentration of 333 μM)	20 to 40	> 333	> 333	< 5	5 to 20	> 333	> 333	1 (inhibition activity ≦ 5%)	< 5		> 333
C=C(C)C1CCc2c(c(C)cc(O)c(=O)c2O)C1 (stereo not drawn) [NSC 310618, manicol]	> 333	25.8	20 to 40		71.1 ± 3.8	11.7 ± 5.2				182 ± 42.5	20.2			> 333	98.3		5 to 20		
